Row | melting point [°C] | Compound
1 | 70 | CC(=O)NC[C@H]1CN(c2ccc(/C=C3\C(=O)N(c4ccccc4)N=C3C(C)(C)C)cc2)C(=O)O1
2 | 193 to 195 | CC(=O)NC[C@H]1CN(c2ccc(/C=C3/C(=O)N(C)c4ccccc43)cc2)C(=O)O1

— patent US20020091107A1 (published 2002)
